Drawing on the METLIN SMRT retention time set (Domingo-Almenara et al. 2019), this text covers RP-LC retention time for 33 compounds.

The data set is described as follows: gradient 5% acetonitrile 3 min, to 50% in 2 min, to 85% in 15 min, held 3 min, 100 µL/min. Conditions: column: Zorbax Extend-C18 2.1 x 50 mm; eluents: water / acetonitrile, 0.1% formic acid. The gist of the method:
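Retention times of pure standards were taken from adduct peaks that were selected by computer and manually inspected. Over 3 months, mixtures of ~100 molecules were run by HPLC–quadrupole time-of-flight mass spectrometry in positive and negative ionization mode. The Zorbax Extend-C18 column (2.1 × 50 mm, 1.8 μm) ran at 100 μL/min in water and acetonitrile, each containing 0.1% formic acid, with 40 μL dead volume and 900 μL dwell volume.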
With `CC(C)(C)CC(=O)N1CCN(c2nc(CN3CCOCC3)cs2)CC1`, the RP-LC retention time was 611 s. The result for `CC1CS(=O)(=O)N(c2ccc(S(=O)(=O)N3CCC(C(N)=O)CC3)cc2)C1=O` (stereo not drawn) reads 640 s. Turning to `CCN1C(=O)c2cccc3c(S(=O)(=O)Nc4cccc(C)n4)ccc1c23`, the RP-LC retention time worked out at 635 s. `O=C(NCCCN1CCCC1)C1CCCN(c2nccnc2Sc2ccccc2)C1` (stereo not drawn) came in with an RP-LC retention time of 659 s. `CCOc1cc(C(=O)NC(C(=O)Nc2nc3ccccc3[nH]2)C(C)C)cc(OCC)c1OCC` (stereo not drawn) registered an RP-LC retention time of 824 s. The result for `O=C(Nc1cccc(-c2ccccc2)c1)N1CCN(C(=O)Nc2cccc(-c3ccccc3)c2)CC1` reads 980 s; that for `COCCNC(=O)C1(C)CCC(=O)N1CCc1c[nH]c2ccccc12` (stereo not drawn), 653 s; that for `CCc1nnc2nc(N3CCN(C(=O)COc4ccc(OC)cc4)CC3)cc(C)n12`, 613 s. As to `CNC(=O)C1CCCN(c2nc3ncn(CC(=O)NCc4ccccc4)c(=O)c3s2)C1` (stereo not drawn), the RP-LC retention time turned out to be 620 s. Under `Cc1nnc(-c2nnc(NCc3ccccc3)c3ccccc23)o1` stands 776 s.

Consider `CC(C)c1noc(-c2cc(=O)n(CC(=O)Nc3ccc(N(C)C)cc3)c3ccccc23)n1`, for which the RP-LC retention time stood at 737 s. The result for `O=C(NCCc1ccccc1)NCCc1ccsc1` reads 764 s; that for `O=C(C1CC1)N1CCCC(OCc2nc(-c3cnccn3)no2)C1` (stereo not drawn), 651 s.

The compound `Cc1cccc(C2CCCN2C(=O)Cn2cc(Cl)cn2)c1` (stereo not drawn) displayed an RP-LC retention time of 866 s. The result for `O=C(NC1CCN(c2cc(-c3ccc(F)cc3)[nH]n2)C1)c1cc(F)ccc1Cl` (stereo not drawn) reads 685 s; that for `O=C(c1ccsc1)N1CCC(n2c(C3CCCC3)nc3cccnc32)C1` (stereo not drawn), 636 s. Consider `CCCC(=O)NC1(c2nc(C(C)C)no2)CCCCC1`, for which the RP-LC retention time is 850 s. The result for `Cc1oc2ccn(Cc3cccc(F)c3)c(=O)c2c1C(=O)NC1CCCC1` reads 1060 s. With `COC(=O)Nc1ccc2[nH]cc(CCNC(C)=O)c2c1`, the RP-LC retention time was 673 s. Under `COc1ccc(Cl)cc1S(=O)(=O)N(C)CC1(C)CCOCC1` stands 829 s; under `CCc1cccc(C)c1NC(=O)Cn1c(N(C)Cc2ccccc2)nc(C)cc1=O`, 857 s; under `CN(C)CCNC(=O)c1cccc(Nc2c(-c3ccc(Cl)cc3)nc3cnccn23)c1`, 611 s.

As to `O=C(c1ccccc1Cl)N1CCCC(c2nnc(-c3cccs3)o2)C1` (stereo not drawn), the RP-LC retention time amounted to 775 s.

Consider `O=C(Cn1nc2c(cc1=O)CCCC2)Nc1nc(-c2cccnc2)cs1`, for which the RP-LC retention time came out at 607 s.

Take `Cc1cc(C(=O)Nc2ccc(N3CCOCC3)cc2)nc2cc(-c3ccsc3)nn12`: the RP-LC retention time worked out at 1030 s. As to `Cc1nnc(-c2ccc(S(=O)(=O)N3CCCCCC3)o2)o1`, the RP-LC retention time came out at 834 s. `O=C(CN1CCN(Cc2nc(-c3ccc(F)cc3)cs2)CC1)NCc1ccco1` had an RP-LC retention time of 595 s. `CCc1ccc(CNC(=O)C2CCCN(c3nnc(C)c4c(C)n(-c5ccccc5)nc34)C2)cc1` (stereo not drawn) had an RP-LC retention time of 795 s.

In the case of `CCOc1ccc(N2C=C(C(=O)N3CCCC3)S(=O)(=O)c3ccccc32)cc1`, the RP-LC retention time was determined as 828 s. The result for `Cc1cccc(-c2nnc(Cc3nc(-c4cccs4)no3)o2)c1` reads 979 s; that for `CCn1c(C(=O)NCc2ccccc2)cc2sc(Cl)cc21`, 1110 s. The result for `Cc1noc(C)c1S(=O)(=O)N1CC(CN(C)C)C2(CCOCC2)C1` (stereo not drawn) reads 600 s. The result for `Cc1ccc(C(=O)N2C[C@@H]3C[C@H](NC(=O)c4ccccc4)[C@H]2C3)cc1F` reads 811 s.
